Source: patent US9095577B2, “Stabilized amine-containing actives in oral film compositions” (MonoSol Rx, LLC, priority 2009, dated 2015)

Assay: Reaction of sweetener with the amine-containing active (gel formation)
Assay type: physicochemical
Procedure: It has been discovered that gellation and/or agglomeration of components particularly occurred when sucralose was added to the active ingredient (such as ondansetron). It has been determined that the particular choice of excipients combined together may be important to prevent the formation of undesirable gellation and/or agglomeration. […] It is hypothesized that the amines on the active component may form quaternary salts with the primary alkyl chlorides on the sucralose. Quaternary polymers make good hydrogels, and thus undesirably form a gel-like structure, which is problematic in the processing of film matrices to form films having a uniformity of content.

Compound: OC[C@H]1O[C@@](CO)(O[C@H]2O[C@H](CO)[C@@H](O)[C@H](O)[C@H]2O)[C@@H](O)[C@@H]1O [sucrose]
- reaction with the amine-containing active (gel formation): did not react
